Assay results from publication PMC7271538 (Frontiers in Microbiology, 2020).
Structures can show the parent of a compound that is named as a salt. Where two headings read alike, the source gives them in different places.

Biological target: T1, prolyl oligopeptidase (rPOPLi) (Leishmania infantum, UniProt A4ICB5)
T1 construct: gene LINJ_36_7060; full-length, recombinant from E. coli (pET-15b)
Experiment: fluorogenic assay, single concentration […]
Format: biochemical

T1 sequence (A4ICB5 entry or part of it): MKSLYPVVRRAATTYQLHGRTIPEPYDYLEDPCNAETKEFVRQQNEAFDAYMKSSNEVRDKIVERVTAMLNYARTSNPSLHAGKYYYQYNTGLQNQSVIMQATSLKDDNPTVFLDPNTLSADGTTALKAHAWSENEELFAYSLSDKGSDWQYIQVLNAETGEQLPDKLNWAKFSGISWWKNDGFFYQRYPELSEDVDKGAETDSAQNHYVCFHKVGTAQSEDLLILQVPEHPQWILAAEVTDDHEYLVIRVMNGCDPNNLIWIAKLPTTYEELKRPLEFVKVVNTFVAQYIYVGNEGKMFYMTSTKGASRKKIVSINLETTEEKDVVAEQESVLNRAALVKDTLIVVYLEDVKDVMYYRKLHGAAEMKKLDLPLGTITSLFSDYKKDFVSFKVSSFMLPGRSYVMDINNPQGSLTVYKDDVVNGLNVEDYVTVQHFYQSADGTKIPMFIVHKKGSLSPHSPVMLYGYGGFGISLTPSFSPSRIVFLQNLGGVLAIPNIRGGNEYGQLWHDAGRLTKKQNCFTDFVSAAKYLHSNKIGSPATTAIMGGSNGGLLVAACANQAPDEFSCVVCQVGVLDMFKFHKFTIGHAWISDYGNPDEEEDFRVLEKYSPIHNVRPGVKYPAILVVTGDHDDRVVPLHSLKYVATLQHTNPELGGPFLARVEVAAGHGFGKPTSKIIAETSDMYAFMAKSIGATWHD

inhibition at 100 µM (read-out: Inhibition (%)) [%] | Structure (SMILES) | inhibition at 100 µM [%]
92.3 | Cc1ccc(S(=O)(=O)N[C@@H](Cc2ccccc2)C(=O)CCl)cc1 [TPCK, N-p-Tosyl-L-phenylalanine chloromethyl ketone] | –
– | Cc1ccc(S(=O)(=O)N[C@@H](CCCCN)C(=O)CCl)cc1 [TLCK, N-α-Tosyl-L-lysine chloromethyl ketone hydrochloride] | 96.8
